# Assay results published in patent US20070259819A1, “Cosmetic Use of at Least Natural Tetrapeptide Ac-Ser-Asp-Lys-Pro or One of Its Analogs as a Skin Anti-Aging and Restructuring Agent” (Centre National De La Recherche Scientfique (CNRS), priority 2004, published 2007).
# Entries after “also recorded” stand apart in the source; their conditions may differ. Peptide text beside a SMILES is read from it.
# Key:
# Format in all cases: cell-based
# human skin explants = assay: General morphology of human skin explants (histology); settings: topical daily
# Protocol: (§1) This study was conducted on thirty six human skin explants obtained from breast plastic surgery.
# (§2) All the explants were maintained in a state of survival in a culture medium for eight days. AcSDKP at a concentration of 10^−5 M or 10^−8 M in physiological serum was applied to the explants by topical route every day for one week. On days 2, 4, 6 and 8, three explants from each batch (control, +AcSDKP 10^−5 M+ AcSDKP 10^−8 M) were removed and prepared for histological studies. General morphology was examined and an evaluation of the expression of basal keratin (CK14), undifferentiated keratin (CK19), collagen III, collagen IV, fibronectin and glycosaminoglycan without an acid group was performed.
# basal keratin (CK14) = assay: Immunolabelling of keratin 14 in human skin explants
# Protocol: as §1, §2
# [1] = tested on: undifferentiated keratin (CK19); assay: Immunolabelling of keratin 19 in human skin explants
# Protocol: as §1, §2
# collagen III = assay: Immunolabelling of collagen III in human skin explants
# Protocol: as §1, §2
# collagen IV = assay: Immunolabelling of collagen IV in human skin explants; settings: D6 and D8
# Protocol: as §1, §2
# fibronectin = assay: Immunolabelling of fibronectin in human skin explants
# Protocol: as §1, §2
# [2] = tested on: glycosaminoglycan without an acid group; assay: P.A.S. Alcian blue staining of glycosaminoglycans without acid groups in human skin explants
# Protocol: as §1, §2
# This effect, clearly visible at D6 and D8, is characterised by a PAS positive increase in the number of fibroblasts in the papillary dermis, especially in the band situated along the dermo-epidermal junction and by increased levels of GAGs in these fibroblasts.
# [3] = topical daily, human skin explants, immunolabelling
structure (smiles),measurement,setting,value
"CC(=O)N[C@@H](CO)C(=O)N[C@@H](CC(=O)O)C(=O)N[C@@H](CCCCN)C(=O)N1CCC[C@H]1C(=O)O [AcSDKP, CH3CO-Ser-Asp-Lys-Pro] (Ac-SDKP-OH)",General morphology: epidermal structure,"human skin explants; 10^-5 M and 10^-8 M, human skin explants",triggers stimulation of the epidermal structure as of D6 of treatment
same,Increase in epidermal thickness,human skin explants; 10^-5 M compared with 10^-8 M,increase in epidermal thickness is greater
same,Keratin 14 (CK14) restructuring effect,basal keratin (CK14); 10^-5 M compared with 10^-8 M,restructuring effect is greater
same,Keratin 14 (CK14) expression,basal keratin (CK14); [3],gradual increase in the levels of this protein in the basal and superbasal position as of D4 of treatment
same,Keratin 19 (CK19) expression,"[1]; 10^-5 M and 10^-8 M, topical daily, immunolabelling",overexpression of the skin's dermal attachments as of D6 of treatment
same,Keratin 19 (CK19) expression,[1]; 10^-5 M compared with 10^-8 M,less marked effect
same,Collagen III expression,"collagen III; 10^-5 M, D8",very clear overexpression of collagen III in the papillary and reticular dermis
same,Collagen III levels,"collagen III; 10^-5 M, six days of treatment",very marked increase in collagen III levels in the papillary dermis along the dermo-epidermal junction
same,Collagen III level,"collagen III; 10^-8 M, D8",level of collagen III increases along the dermo-epidermal junction and forms a thicker collagen band
same,Collagen III expression along the dermo-epidermal junction,"collagen III; 10^-8 M, six days of treatment, compared with 10^-5 M",less pronounced
same,Collagen IV levels in the basal membrane,collagen IV; 10^-5 M and 10^-8 M,less pronounced than that for type III collagen
same,Increase in collagen IV levels,collagen IV; 10^-5 M compared with 10^-8 M,higher
same,Fibronectin expression,fibronectin; 10^-5 M compared with 10^-8 M,greater activity
same,Fibronectin expression,fibronectin; [3],fibronectin network is denser and has thicker fibres; also recorded: triggers overexpression of this protein along a dermo-epidermal junction as well as in the papillary and reticular dermis
same,Glycosaminoglycan (GAGs) levels,"[2]; 10^-5 M and 10^-8 M, clearly visible at D6 and D8",significant increase in the levels of these compounds in the skin
same,Glycosaminoglycan (GAGs) expression,[2]; 10^-5 M compared with 10^-8 M,higher level of activity
